The source of these data is doi:10.1101/2025.01.28.635346v1 (bioRxiv, 2025).

The target in series [1] is carboxypeptidase Y (Saccharomyces cerevisiae, UniProt P00729). The series can be described thus: Proteolysis test, carboxypeptidase Y treatment for 4 h, HPLC. In kind it is in vitro ADME.
A short description of series [2]: Plasma stability, human plasma. In kind it is in vitro ADME.
In series [3] the target is T1, CHRM1 (Homo sapiens, UniProt P11229).
T1 sequence (P11229 1-460): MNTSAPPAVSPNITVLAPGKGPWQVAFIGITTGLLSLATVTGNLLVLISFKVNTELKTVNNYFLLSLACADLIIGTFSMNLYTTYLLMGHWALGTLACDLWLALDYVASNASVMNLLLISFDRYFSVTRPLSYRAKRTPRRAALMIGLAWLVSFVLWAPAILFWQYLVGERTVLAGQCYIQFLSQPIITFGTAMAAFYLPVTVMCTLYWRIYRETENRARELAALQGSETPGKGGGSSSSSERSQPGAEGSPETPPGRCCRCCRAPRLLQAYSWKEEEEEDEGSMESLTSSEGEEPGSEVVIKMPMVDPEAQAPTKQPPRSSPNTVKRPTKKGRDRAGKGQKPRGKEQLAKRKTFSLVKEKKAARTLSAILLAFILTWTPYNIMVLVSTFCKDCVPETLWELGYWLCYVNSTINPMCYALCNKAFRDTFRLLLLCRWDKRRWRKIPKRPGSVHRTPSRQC
The series is described as follows: Safetyscan47 GPCR Calcium Flux, Agonist. In kind it is cell-based. The note with it: for Emax: read-out: Max Response.

Series [4] addresses T2, CHRM2 (Homo sapiens, UniProt P08172).
T2 sequence (P08172 1-466): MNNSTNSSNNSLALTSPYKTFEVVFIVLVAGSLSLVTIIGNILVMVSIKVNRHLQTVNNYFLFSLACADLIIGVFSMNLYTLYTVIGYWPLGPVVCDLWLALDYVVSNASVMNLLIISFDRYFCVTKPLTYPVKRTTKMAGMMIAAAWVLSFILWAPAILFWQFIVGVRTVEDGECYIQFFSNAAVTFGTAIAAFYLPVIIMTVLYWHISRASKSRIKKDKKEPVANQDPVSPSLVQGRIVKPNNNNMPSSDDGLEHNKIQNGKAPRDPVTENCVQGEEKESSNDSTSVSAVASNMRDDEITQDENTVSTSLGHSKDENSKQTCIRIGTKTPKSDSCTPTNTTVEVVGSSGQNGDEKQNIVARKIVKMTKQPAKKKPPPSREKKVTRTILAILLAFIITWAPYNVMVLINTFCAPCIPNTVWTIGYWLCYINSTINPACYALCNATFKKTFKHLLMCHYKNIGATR
The series can be described thus: Safetyscan47 GPCR cAMP, Antagonist. In kind it is cell-based. The settings on record: for Emax: read-out: Max Response.

The target in series [5] is CNR2 (Homo sapiens, UniProt P34972). The series can be described thus: Safetyscan47 GPCR cAMP, Antagonist. In kind it is cell-based. The settings on record: for Emax: read-out: Max Response.
Sequence of CNR2 (P34972 whole entry): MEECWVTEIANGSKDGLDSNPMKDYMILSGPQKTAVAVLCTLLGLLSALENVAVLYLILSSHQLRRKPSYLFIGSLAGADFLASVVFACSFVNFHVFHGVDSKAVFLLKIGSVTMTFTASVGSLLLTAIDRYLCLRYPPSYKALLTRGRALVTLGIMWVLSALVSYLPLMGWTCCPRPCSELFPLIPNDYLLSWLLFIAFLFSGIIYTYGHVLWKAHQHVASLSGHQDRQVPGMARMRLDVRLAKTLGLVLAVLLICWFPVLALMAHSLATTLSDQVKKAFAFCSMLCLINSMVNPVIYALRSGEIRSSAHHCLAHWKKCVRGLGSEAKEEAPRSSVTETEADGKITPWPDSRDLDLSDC
The target in series [6] is HTR1B (Homo sapiens, UniProt P28222). The series can be described thus: Safetyscan47 GPCR cAMP, Antagonist. In kind it is cell-based. The note with it: for Emax: read-out: Max Response.
Sequence of HTR1B (P28222 whole entry): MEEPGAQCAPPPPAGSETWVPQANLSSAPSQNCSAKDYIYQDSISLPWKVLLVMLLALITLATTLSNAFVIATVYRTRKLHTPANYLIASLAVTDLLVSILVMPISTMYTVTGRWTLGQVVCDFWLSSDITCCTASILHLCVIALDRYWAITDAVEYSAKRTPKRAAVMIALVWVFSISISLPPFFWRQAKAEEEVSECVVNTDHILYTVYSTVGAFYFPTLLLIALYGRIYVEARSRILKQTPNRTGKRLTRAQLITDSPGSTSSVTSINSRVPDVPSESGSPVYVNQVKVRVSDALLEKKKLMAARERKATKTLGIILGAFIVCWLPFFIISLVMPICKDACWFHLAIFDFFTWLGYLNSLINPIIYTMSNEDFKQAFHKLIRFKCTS
Series [7] addresses COX1 (Homo sapiens, UniProt P23219). The series is described as follows: Safetyscan47 Non-Kinase Enzymes Enzymatic, Inhibitor. The settings on record: for Emax: read-out: Max Response. It is filed as biochemical.

Bridge positions count the residues as written; N and C are the ends. Side chains are listed from the residue outwards. Peptide text beside a SMILES is read from it. * marks the point of attachment. Butanoyl(4-(4-I-phenyl)) = O=C(CCCc1ccc(I)cc1)*; PEG2 = NCCOCCOCCC(=O)O

Sequence of COX1 (P23219 24-599): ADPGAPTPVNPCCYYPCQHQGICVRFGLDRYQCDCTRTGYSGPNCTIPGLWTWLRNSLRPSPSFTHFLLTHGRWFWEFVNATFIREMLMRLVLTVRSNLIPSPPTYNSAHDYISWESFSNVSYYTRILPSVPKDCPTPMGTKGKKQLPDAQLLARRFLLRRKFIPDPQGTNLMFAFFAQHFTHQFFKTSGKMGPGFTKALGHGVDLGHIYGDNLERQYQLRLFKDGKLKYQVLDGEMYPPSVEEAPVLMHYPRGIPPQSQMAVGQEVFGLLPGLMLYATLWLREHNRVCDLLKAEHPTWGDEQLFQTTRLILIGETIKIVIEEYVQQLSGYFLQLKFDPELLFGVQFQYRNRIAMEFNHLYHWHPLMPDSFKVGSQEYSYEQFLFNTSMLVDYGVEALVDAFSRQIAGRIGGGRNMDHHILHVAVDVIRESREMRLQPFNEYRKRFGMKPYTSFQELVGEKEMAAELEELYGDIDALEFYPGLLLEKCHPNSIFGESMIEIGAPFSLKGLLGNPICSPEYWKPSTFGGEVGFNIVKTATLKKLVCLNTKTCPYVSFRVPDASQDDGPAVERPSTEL
Sequence of carboxypeptidase Y (P00729 112-532, species assumed): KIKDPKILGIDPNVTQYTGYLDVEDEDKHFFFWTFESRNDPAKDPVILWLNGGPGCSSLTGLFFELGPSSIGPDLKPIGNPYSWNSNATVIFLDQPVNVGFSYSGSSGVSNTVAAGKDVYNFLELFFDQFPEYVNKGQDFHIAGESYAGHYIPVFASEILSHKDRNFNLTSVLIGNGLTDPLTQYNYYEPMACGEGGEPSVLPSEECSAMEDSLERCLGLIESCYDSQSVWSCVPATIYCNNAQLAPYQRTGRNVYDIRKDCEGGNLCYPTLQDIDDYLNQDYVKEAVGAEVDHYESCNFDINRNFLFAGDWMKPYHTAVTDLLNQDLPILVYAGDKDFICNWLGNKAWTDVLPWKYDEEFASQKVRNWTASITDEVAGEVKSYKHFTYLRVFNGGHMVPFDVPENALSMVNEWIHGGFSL

On to `CC[C@H](C)[C@H](NC(=O)[C@H](CC(C)C)NC(=O)[C@H](CC(=O)O)NC(=O)CNC(=O)[C@H](CCCNC(=N)N)NC(=O)[C@@H](NC(=O)[C@H](Cc1ccccc1)NC(=O)[C@H](Cc1ccc(O)cc1)NC(=O)[C@@H]1CCC(=O)NCC(=O)NCC(=O)N[C@@H](CCCNC(=N)N)C(=O)NCC(=O)N[C@@H](Cc2c[nH]cn2)C(=O)N[C@@H](C(C)C)C(=O)N2CCC[C@H]2C(=O)N1)C(C)C)C(=O)N[C@@H](CO)C(=O)N[C@@H](Cc1ccccc1)C(=O)N[C@@H](Cc1ccc(O)cc1)C(=O)N[C@@H](CCCCN)C(=O)O` [lassotide 36] (GGRGHVPEYFVRGDLISFYK-OH; lactam N-8), for which the “change in HPLC trace after proteolysis” value in series [1] is given as “little or no change”. The compound further yielded an amount remaining at 0.5 h, 2 μM in series [2] of 91.9%. In series [2], this compound had a fraction remaining at 4 h, 2 μM of 93.2%. In addition, the EC50 in series [3] was more than 45 µM. Moreover, the Emax in series [3] was determined as 0.34%; in series [4], 0%; in series [5], 1.15%; in series [6] it was 0%; in series [7], 21%. In addition, the half-inhibitory concentration (IC50) in series [4], in series [5], in series [6] and in series [7] was more than 45 µM throughout.
Turning to `CC[C@H](C)[C@H](NC(=O)[C@H](CC(C)C)NC(=O)[C@H](CC(=O)O)NC(=O)CNC(=O)[C@H](CCCNC(=N)N)NC(=O)[C@@H](NC(=O)[C@H](Cc1ccccc1)NC(=O)[C@H](Cc1ccc(O)cc1)NC(=O)[C@@H]1CCC(=O)NCC(=O)NCC(=O)N[C@@H](CCCNC(=N)N)C(=O)NCC(=O)N[C@@H](Cc2c[nH]cn2)C(=O)N[C@@H](C(C)C)C(=O)N2CCC[C@H]2C(=O)N1)C(C)C)C(=O)N[C@@H](CO)C(=O)N[C@@H](Cc1ccccc1)C(=O)N[C@@H](Cc1ccc(O)cc1)C(=O)N[C@@H](CCCCNC(=O)CCOCCOCCNC(=O)CCCc1ccc(I)cc1)C(=O)O` [lassotide 47] (GGRGHVPEYFVRGDLISFYK([PEG2-Butanoyl(4-(4-I-phenyl))])-OH; lactam N-8), the “change in HPLC trace after proteolysis” value in series [1] is reported as “little or no change”. The compound further came in with a share remaining at 0.5 h, 2 μM in series [2] of 95.1%. Moreover, in series [2], the amount remaining at 4 h, 2 μM is 92.2%. In addition, in series [3], the EC50 was more than 45 µM. Further, the Emax was determined as 1.46% in series [3]; 0% in series [4]; 2.1% in series [5]; 0% in series [6]; 19.4% in series [7]. Also, the IC50 in series [4], in series [5], in series [6] and in series [7] was more than 45 µM in each case.
